Laboratory results as given in patent US20030187261A1, “Purine derivatives, process for their preparation and use thereof” (priority 2000, published 2003).

Experiments:
IκB-α = IκB-α kinase-inhibitory activity; type: biochemical
Source text: Modification of 2,6,9-trisubstituted purines by a catechol-like substituent at R6 leads to an increase in cdk inhibitory activity of the tested compounds.

CDC2 = target: T1, CDC2 (Homo sapiens, UniProt P06493); experiment: p34cdc2 (CDC2) kinase inhibition assay, histone H1 substrate; type: biochemical
T1 construct: made in house; host or cells: Sf9 insect cells, baculovirus co-infection
Protocol: Cyclin-dependent kinases (p34^cdc2, p33^cdk2, p33^cdk4 and cyclins (cyclin B, E and DI) are produced in Sf9 insect cells coinfected with appropriate baculoviral constructs. The cells are harvested 68-72 hrs post infection in lysis buffer for 30 min on ice and the soluble fraction is recovered by centrifugation at 14.000 g for 10 min. The protein extract is stored at −80° C.
To carry out experiments on kinetics under linear conditions, the final point test system for kinase activity measurement is used. The kinase is added to the reaction mixture in such a way that linear activity is obtained with respect to the concentration of enzyme and with respect to time.
Inhibition of p33^cdk4 kinase is determined with Rb-GST (0.2 mg/ml) as the substrate. Kinase activity is determined at 30° C. in kinase buffer.
Tested compounds are usually dissolved to 100 mM solutions in DMSO, the final concentration of DMSO in reaction mixture never exceeds 1%. The controls contain suitable dilutions of DMSO. After 10 min, the addition of 3×SDS sample buffer stops the incubations. […] The measurement of kinase activity is done using digital image analysis. The kinase activity is expressed as a percentage of maximum activity, the apparent inhibition constants are determined by graphic analysis. Kinase buffer: 50 mM Hepes pH 7.4, 10 mM MgCl21 5 mM EGTA, 10 mM 2-glycerolphosphate,

[1] = test system: T-lymphoblastic leukemia cell line CEM; experiment: MTT cytotoxicity assay, CEM; type: cell-based, human; conditions: 72 hours (TCS50 in the method)
Source text: (§1) One of the parameters used as the basis for colorimetric assays is the metabolic activity of viable cells. For example, a microtiter assay, which uses the tetrazolium salt MTT, is now widely used to quantitate cell proliferation and cytotoxicity. For instance, this assay is used in drug screening programs and in chemosensitivity testing. Because only metabolically active cells cleave tetrazolium salts, these assays detect viable cells exclusively. In the case of MTT assay, yellow soluble tetrazolium salt is reduced to coloured water-insoluble formazan salt. After it is solubilized, the formazan formed can easily and rapidly be quantified in a conventional ELISA plate reader at 570 nm (maximum absorbance). The quantity of reduced formazan corresponds to number of vital cells in the culture. Human T-lymphoblastic leukemia cell line CEM; promyelocytic HL-60 and monocytic U937 leukemias; breast carcinoma cell lines MCF-7, BT549, MDA-MB-231; glioblastoma U87MG cells; cervical carcinoma cells HELA; sarcoma cells U20S and Saos2; hepatocellular carcinoma HepG2; mouse immortalized bone marrow macrophages B2.4 and B10A.4; P388D1 and L1210 leukemia; B16 and B16F10 melanomas were used for routine screening of the compounds according to the invention. The cells were maintained in Nunc/Corning 80 cm^2 plastic tissue culture flasks and cultured in cell culture medium (DMEM with 5 g/l glucose, 2 mM glutamine, 100 U/ml penicillin, 100 μg/ml streptomycin, 10% fetal calf serum and sodium bicarbonate).
(§2) The cell suspensions that were prepared and diluted according to the particular cell type and the, expected target cell density (2500-30000 cells per well based on cell growth characteristics) were added by pipette (80 μl) into 96-well microtiter plates. Inoculates were allowed a pre-incubation period of 24 hours at 37° C. and 5% CO2 for stabilisation. Four-fold dilutions of the intended test concentration were added at time zero in 20 μl aliquots to the microtiter plate wells. Usually, test compound was evaluated at six 4-fold dilutions. In routine testing, the highest well concentration was 266.7 μM, but it can be the matter of change dependent on the agent. All drug concentrations were examined in duplicates. Incubations of cells with the test compounds lasted for 72 hours at 37° C., in 5% CO2 atmosphere and 100% humidity. At the end of incubation period, the cells were assayed by using the MTT. Ten microliters of the MTT stock solution were pipetted into each well and incubated further for 1-4 hours. After this incubation period, formazan was solubilized by addition of 100 μl/well of 10% SDS in water (pH=5.5) followed by further incubation at 37° C. overnight. The optical density (OD) was measured at 540 nm with the Labsystem iEMS Reader MF (UK). The tumour cell survival (TCS) was calculated using the following equation: TCS=(ODdrug exposed well/mean ODcontrol wells)×100%. The TCS50 value, the drug concentration lethal to 50% of the tumour cells, was calculated from the obtained dose response curves.
(§3) The cytoxicity of novel compounds was tested on panel of cell lines of different histogenetic and species origin (Table 7). Equal activities were found in all tumour cell lines tested. […] Importantly, this observation distinguishes the purine derivatives of the invention from flavopiridol and related compounds, as their biological activity is dependent on p53 status.

B16 melanoma = experiment: MTT cytotoxicity assay, B16; type: cell-based, mouse; conditions: 72 hours (TCS50 in the method)
Source text: as §1, §2, §3

normal human lymphocytes = experiment: concanavalin A induced lymphocyte proliferation, [3H]-TdR incorporation; type: cell-based; conditions: 72 hours, read-out: ED50 (the source's name)
Protocol: Human heparinized peripheral blood was obtained from healthy volunteers by cubital vein punction. The blood was diluted in PBS (1:3) and mononuclear cells were separated by centrifugation in Ficoll-Hypaque density gradient (Pharmacia, 1.077 g/ml) at 2200 rpm for 30 minutes. Following centrifugation, lymphocytes were washed in PBS and resuspended in cell culture medium (RMPI 1640, 2 mM glutamine, 100 U/ml penicillin, 100 μg/ml streptomycin, 10% fetal calf serum and sodium bicarbonate).
The cells were diluted at target density of 1100000 cells/ml and were added by pipette (180 μl) into 96/well microtiter plates. Four-fold dilutions of the intended test concentration were added at time zero in 20 μl aliquots to the microtiter plate wells. Usually, test compound was evaluated at six 4-fold dilutions. In routine testing, the highest well concentration was 266.7 μM. All drug concentrations were examined in duplicates. All wells with exception of unstimulated controls were activated with 50 μl of concanavalin A (25 μg/ml). Incubations of cells with test compounds lasted for 72 hours at 37° C., in 5% CO2 atmosphere and 100% humidity. At the end of incubation period, the cells were assayed by using the [^3H]-TdR:
Cell cultures were incubated with […] (20 μl of stock solution 500 μCi/ml) per well for 6 hours at 37° C. and 5% CO2. The automated cell harvester was used to lyse cells in water and adsorb the DNA onto glass-fiber filters in the format of microtiter plate. The DNA incorporated [^3H]-TdR was retained on the filter while unincorporated material passes through. The filters were dried at room temperature overnight, sealed into a sample bag with 10-12 ml of scintillant. The amount of [^3H]-TdR present in each filter (in cpm) was determined by scintillation counting in a Betaplate liquid scintillation counter. The effective dose of immunosuppressant (ED) was calculated using the following equation: ED=(cpmdrug exposed well/mean cpmcontrol wells)×100%. The EDs50 value, the drug concentration inhibiting proliferation of 50% of lymphocytes, was calculated from the obtained dose response curves.
To evaluate immunosuppressive activity of substituted adenines, their ability to inhibit polyclonal mitogen induced proliferation of normal human lymphocytes was analyzed (Table 8). […] Effective immunosuppressive dose of new derivatives under in vitro conditions was close to 1-20 μM.

[2] = test system: T-lymphocyte leukemia Molt3 cell line; experiment: cell growth of Molt3 cell line, flow cytometric cell count; type: cell-based, human; conditions: Homo sapiens, MOLT-3; 96 hours of culture
Protocol: Cell lines: Human leukemic cell lines were obtained from the American Type Culture Collection (ATCC, Rockville, Md., USA). They were cultured in Iscove's Modified Dulbecco's Medium (IMDM) supplemented with 10% heat inactivated fetal calf serum (FCS), 200 U/ml penicillin, 200 μg/ml streptomycin and 1 μg/ml amphotericin B. Cells were cultured in a 5% CO2-95% air fully humidified incubator. For effects on clonogenic output, 1000 cells/well were plated in duplicate in methylcellulose (0.9%), supplemented with 20% FCS and cultured for 14 days.
(§4) Cells were plated at 10000 per well in 200 μl IMDM medium and incubated with 0-50 μM of the compounds of the invention (Table 5), by addition of the drugs directly to the culture medium and incubated at 37° C. for 96 hours. Absolute cell number was determined by addition of a known concentration of Fluoresbrite microspheres (FITC) (Polysciences, Inc.). The absolute number of cells per well was calculated as: {(total number of beads added per well)/(number of beads measured)}×(number of measured cells in the gate of interest). All analyses were performed with a FACScan (BD), using CELLQuest software (Becton Dickinson).
The response of the myeloid leukemia KG1 and T-lymphocyte leukemia Molt3 cell lines to the cytostatic effect of the novel compounds was determined using the above-mentioned standardized bead suspension that was used to determine the absolute cell number by flow cytometric (FCM) measurement. Cells were grown in the presence of increasing concentrations of the compounds of the invention.

[3] = test system: CD34+ hematopoietic progenitors (HPC) from adult bone marrow; experiment: myeloid colony-forming unit (CFU) assay; type: cell-based, human
[4] = test system: PHA-stimulated lymphocytes (PBMC); experiment: cell number of PHA-stimulated lymphocytes (PBMC), flow cytometry; type: cell-based, human; conditions: Homo sapiens, Lymphocyte; 96 hours, in the presence of IL-2; read-out: Lymphocytes IC50
Protocol: Human peripheral blood mononuclear cells were isolated by density gradient (Ficoll-Hypaque) (LSM, ICN Biomedicals Inc.). PBMC were stimulated with 5 μg/ml phytohemaglutinin A (PHA) (Sigma) during 24-48 hours in IMDM supplemented with 10% FCS (IMDM/10% FCS) at 37° C. After washing off the PHA, PBMC were incubated with interleukin-2 (IL-2) (10 U/ml) (Genzyme).
as §4
The novel compounds were tested for cytotoxicity on PHA-stimulated lymphocytes (PBMC), as one of the normal counterparts of the cell lines. Cells were grown for 96 hours in the presence of IL-2 and different concentrations of the novel compounds and cell number was counted on the flow cytometer.

[5] = test system: myeloid leukemia KG1 cell line; experiment: cell growth of KG1 cell line, flow cytometric cell count
Protocol: To determine reversibility of the effects of the new compounds, cells were plated at 10,000 per well and exposed to 0-50 μM of the composed, either continuously for 7 days (control) or only for 6 hours. In the latter case, cells were washed after 6 hours in phosphate-buffered-saline (PBS) (Life Technologies) and reseeded into drug-free medium for 7 days.

β-adrenergic receptors = experiment: isoproterenol-induced intracellular cAMP synthesis in rat C6 glioma; type: cell-based; conditions: cAMP induced by 5 μM (−) isoproterenol, 30 min; for Effect: rat C6 glioma; for IC50: read-out: I50
Protocol: Rat C6 glioma (ATCC N° CCL107) was cultivated in monolayer in serum-free chemically defined medium containing Ham's F10/minimal essential medium (1:1 vol/vol), 2 mM L-glutamine, 1% (vol/vol) minimal essential medium vitamins (100×), 1% (vol/vol) minimal essential medium nonessential amino acids (100×), 100 U/ml penicillin, 100 μg/ml streptomycin and 30 nM sodium selenite. Incubation was at 37° C. in a humidified atmosphere. Assays were performed in the logaritmic growth phase at a density of 2.5×10^5 cells/cm^2. Intracellular cAMP synthesis was induced by addition of 5 μM (−) isoproterenol. After 30 min incubation at 37° C. the medium was removed and the cellular amount of cAMP determined using the cAMP-enzyme immunoassay kit of Amersham. The IC50 is determined from a dose-response curve in duplicate. The effect of seven purine-analogs was measured after simultaneous addition with isoproterenol.
As P2Y1-like and A2 purinergic receptors, negatively and positively coupled to adenylate cyclase respectively, are present on rat C6 glioma the modulation of the synthesis of cAMP may be due to inhibition of the activation of β-adrenergic receptors by isoproterenol or to activation of purinergic receptors.

[6] = test system: adult bone marrow CD34+CD38- cells; experiment: pre-CFU assay; type: cell-based, human; conditions: Homo sapiens, 336 h; 14 day liquid culture, total clonogenic output after secondary methylcellulose culture
Source text: […]. Cells with low-to-medium forward and low side scatter, highly positive green (CD34) fluorescence, and an orange (CD38) fluorescence signal lower than the mean fluorescence of cells labeled with an irrelevant isotype-matched control antibody+2 standard deviations were retained as CD34^+CD38^− cells and used in pre-CFU assays.
Pre-CFU assays were initiated by performing liquid cultures of CD34^+CD38^− cells in duplicate in 96-well flat-bottomed plates in IMDM/10% FCS, 1% bovine serum albumin (BSA), 100 U/ml IL-1, 200 U/ml IL-6, 30 U/ml IL-3 and 100 ng/ml stem cell factor (SCF). Pre-CFU cultures were initiated with 500 CD34^+CD38^− cells/well (200 μl). After 14 days of culture at 37° C. in 7.5% O2 and 5% CO2 in a fully humidified incubator, the number of cells in each well was counted. Subsequently, the cells were harvested, washed three times in IMDM/10% FCS, and plated in duplicate at 500 cells/well (1000 μl) in secondary methylcellulose CFU cultures as described for CFU assays.
Pre-CFU were cultured starting from adult bone marrow CD34^+CD38^− cells, that had been isolated using the FCM cell sorter. Novel compounds were added at different concentrations to the primary 14 day liquid culture. IC50 was calculated from dose-response curves from total clonogenic output after secondary methylcellulose culture (Table 5).

HIV-2 = experiment: anti-HIV-2 activity in CEM cells; type: cell-based
Protocol: The infected cell cultures were incubated at 37° C. for 5 days in a humidified CO2 incubator. The cytopathicity of the virus was examined by determination of MT-4 cell viability by trypan blue dye staining.

T1 sequence (P06493 whole entry, species assumed): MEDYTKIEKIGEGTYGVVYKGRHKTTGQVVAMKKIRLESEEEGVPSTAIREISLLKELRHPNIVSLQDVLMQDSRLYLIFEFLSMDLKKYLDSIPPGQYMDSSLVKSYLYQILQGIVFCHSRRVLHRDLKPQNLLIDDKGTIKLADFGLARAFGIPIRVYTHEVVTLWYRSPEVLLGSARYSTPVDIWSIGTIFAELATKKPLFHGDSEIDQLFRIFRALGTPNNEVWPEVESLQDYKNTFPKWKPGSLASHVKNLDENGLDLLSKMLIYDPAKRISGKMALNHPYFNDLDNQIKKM
T1 sequence (P14635 whole entry partner, species assumed): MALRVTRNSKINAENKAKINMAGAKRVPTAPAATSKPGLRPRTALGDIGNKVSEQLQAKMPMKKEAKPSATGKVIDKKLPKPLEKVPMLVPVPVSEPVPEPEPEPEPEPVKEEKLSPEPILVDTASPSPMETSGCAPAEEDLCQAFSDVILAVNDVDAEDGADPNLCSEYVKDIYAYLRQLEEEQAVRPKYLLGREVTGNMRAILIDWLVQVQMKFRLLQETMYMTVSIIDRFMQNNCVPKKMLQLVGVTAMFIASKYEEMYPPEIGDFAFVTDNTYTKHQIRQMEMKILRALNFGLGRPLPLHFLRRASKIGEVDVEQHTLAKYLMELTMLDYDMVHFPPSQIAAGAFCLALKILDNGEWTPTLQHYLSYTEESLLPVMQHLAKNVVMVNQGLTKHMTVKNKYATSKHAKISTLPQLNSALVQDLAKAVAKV

## CC(C)[C@H](CO)Nc1nc(NCc2ccc(O)c(O)c2)c2ncn(C(C)C)c2n1
IκB-α; Table 3, unit nM
  IC50: 320 nM
CDC2; Table 3, unit nM
  IC50: 250 nM

## CC(C)[C@H](CO)Nc1nc(N(C)CCc2ccc(O)c(O)c2)c2ncn(C(C)C)c2n1
[1]
  IC50: 8 µM
B16 melanoma
  IC50: 9 µM
IκB-α; Table 3, unit nM
  IC50: 460 nM
CDC2; Table 3, unit nM
  IC50: 390 nM
Normal human lymphocytes
  EC50: 0.54 µM

## CC(C)[C@H](CO)Nc1nc(NC(CO)c2ccccc2)c2ncn(C(C)C)c2n1 (some centres unmarked)
IκB-α; Table 3, unit nM
  IC50: 670 nM
CDC2; Table 3, unit nM
  IC50: 540 nM

## Cn1cnc2c(NCc3ccc(O)c(O)c3)nc(NCCO)nc21
IκB-α; Table 3
  IC50: 10800 nM
CDC2; Table 3
  IC50: 4200 nM

## CC[C@H](CO)Nc1nc(NCc2ccc(O)c(O)c2)c2ncn(C(C)C)c2n1
[1]
  IC50: 8 µM
B16 melanoma
  IC50: 9 µM
IκB-α; Table 3
  IC50: 1250 nM

## CC[C@H](CO)Nc1nc(NC(CO)c2ccccc2)c2ncn(C(C)C)c2n1 (some centres unmarked)
[1]
  IC50: 15 µM
B16 melanoma
  IC50: 13.5 µM
IκB-α; Table 3
  IC50: 2150 nM
Normal human lymphocytes
  EC50: 12 µM

## Cn1cnc2c(NC(CO)c3ccccc3)nc(NCCO)nc21 (racemic)
IκB-α; Table 3
  IC50: 13700 nM
CDC2; Table 3
  IC50: 5600 nM

## CC(C)n1cnc2c(NCc3ccccc3)nc(NCCCN)nc21 [P12, 2-(3-aminopropylamino)-6-benzylamino-9-isopropylpurine]
[2]
  IC50: 19.3 ± 2.3 µM
[3]; Homo sapiens, 336 h, 14 days, methylcellulose, total colony output
  IC50: 37 µM
[3]; scored differentially
  output of the different types of myeloid colonies (CFU-E, CFU-G and CFU-M): significantly lower colony output
[4]
  CC50: 8 ± 1.2 µM
[5]; Homo sapiens, KG-1, 96 h, read-out: KGI IC50
  IC50: 16 ± 1.7 µM
[5]; KG1, compared to control without novel compounds
  cell number after 6 hours of exposure, wash and 7 days in drug-free medium: (some) recovery of cell number
β-adrenergic receptors
  Effect: inhibition
  IC50: 45 ± 5 µM
[6]
  IC50: 20 µM
CDC2; Table 5, CDC2 activity in cell free system
  IC50: 21000 nM

## CC(C)C(CO)Nc1nc(NCc2ccccc2)c2ncn(C(C)C)c2n1 (centres unmarked) [P30]
β-adrenergic receptors
  Effect: inhibition
  IC50: 45 ± 5 µM

## CC[C@@H](CO)Nc1nc(N[C@@H](CO)c2ccccc2)c2ncn(C(C)C)c2n1 [P38]
β-adrenergic receptors
  Effect: inactive

## CC(O)CNc1nc(NC(CO)c2ccccc2)c2ncn(C(C)C)c2n1 (centres unmarked) [P39]
β-adrenergic receptors
  Effect: inactive

## Nc1nc(NCc2ccccc2)c2ncn(CCOCP(=O)(O)O)c2n1 [PME-derivatives: Benzylamino, reference compound]
HIV-2
  HIV-2 CEM IC50: >20 µg/mL
